Calls of active or inactive are those of the source. The rule behind the calls is not given here.

In series [1] the test system is Liver microsome. The experiment in a line: Half life in human liver microsomes at 1 uM preincubated for 5 mins followed by beta-NADPH addition. It counts as ADME.
Series [2] relates to U2OS. In words: Cytotoxicity against human U2OS cells assessed as loss of cell viability at 0.5 to 5 uM after 48 hrs by WST-1 assay. It counts as functional, cell-based. On the technique in general: Formazan colour is commonly taken as a measure of viable cells.
Series [3] deals with U2OS. The conditions noted are these: Homo sapiens, 0.1 to 1 uM.
Description: Inhibition of RNA polymerase-1 in human U2OS cells assessed as effect on nucleolin protein expression at 0.1 to 1 uM after 3 hrs by Western blot analysis
Series [4] has as its system U2OS. As to conditions: Homo sapiens, 10 uM.
Description: Inhibition of RNA polymerase-1 in human U2OS cells assessed as effect on nucleolin protein expression at 10 uM after 3 hrs by Western blot analysis
The nature of series [5]: Inhibition of RNA polymerase-1 in human U2OS cells assessed as decrease in nucleolar localization of nucleolin after 3 hrs by epifluorescence microscopic analysis. It counts as cell-based.
The target of series [6] is DNA-directed RNA polymerase I subunit RPA1 (Homo sapiens, UniProt O95602). The conditions noted are these: u2os.
DNA-directed RNA polymerase I subunit RPA1, sequence (O95602 whole entry): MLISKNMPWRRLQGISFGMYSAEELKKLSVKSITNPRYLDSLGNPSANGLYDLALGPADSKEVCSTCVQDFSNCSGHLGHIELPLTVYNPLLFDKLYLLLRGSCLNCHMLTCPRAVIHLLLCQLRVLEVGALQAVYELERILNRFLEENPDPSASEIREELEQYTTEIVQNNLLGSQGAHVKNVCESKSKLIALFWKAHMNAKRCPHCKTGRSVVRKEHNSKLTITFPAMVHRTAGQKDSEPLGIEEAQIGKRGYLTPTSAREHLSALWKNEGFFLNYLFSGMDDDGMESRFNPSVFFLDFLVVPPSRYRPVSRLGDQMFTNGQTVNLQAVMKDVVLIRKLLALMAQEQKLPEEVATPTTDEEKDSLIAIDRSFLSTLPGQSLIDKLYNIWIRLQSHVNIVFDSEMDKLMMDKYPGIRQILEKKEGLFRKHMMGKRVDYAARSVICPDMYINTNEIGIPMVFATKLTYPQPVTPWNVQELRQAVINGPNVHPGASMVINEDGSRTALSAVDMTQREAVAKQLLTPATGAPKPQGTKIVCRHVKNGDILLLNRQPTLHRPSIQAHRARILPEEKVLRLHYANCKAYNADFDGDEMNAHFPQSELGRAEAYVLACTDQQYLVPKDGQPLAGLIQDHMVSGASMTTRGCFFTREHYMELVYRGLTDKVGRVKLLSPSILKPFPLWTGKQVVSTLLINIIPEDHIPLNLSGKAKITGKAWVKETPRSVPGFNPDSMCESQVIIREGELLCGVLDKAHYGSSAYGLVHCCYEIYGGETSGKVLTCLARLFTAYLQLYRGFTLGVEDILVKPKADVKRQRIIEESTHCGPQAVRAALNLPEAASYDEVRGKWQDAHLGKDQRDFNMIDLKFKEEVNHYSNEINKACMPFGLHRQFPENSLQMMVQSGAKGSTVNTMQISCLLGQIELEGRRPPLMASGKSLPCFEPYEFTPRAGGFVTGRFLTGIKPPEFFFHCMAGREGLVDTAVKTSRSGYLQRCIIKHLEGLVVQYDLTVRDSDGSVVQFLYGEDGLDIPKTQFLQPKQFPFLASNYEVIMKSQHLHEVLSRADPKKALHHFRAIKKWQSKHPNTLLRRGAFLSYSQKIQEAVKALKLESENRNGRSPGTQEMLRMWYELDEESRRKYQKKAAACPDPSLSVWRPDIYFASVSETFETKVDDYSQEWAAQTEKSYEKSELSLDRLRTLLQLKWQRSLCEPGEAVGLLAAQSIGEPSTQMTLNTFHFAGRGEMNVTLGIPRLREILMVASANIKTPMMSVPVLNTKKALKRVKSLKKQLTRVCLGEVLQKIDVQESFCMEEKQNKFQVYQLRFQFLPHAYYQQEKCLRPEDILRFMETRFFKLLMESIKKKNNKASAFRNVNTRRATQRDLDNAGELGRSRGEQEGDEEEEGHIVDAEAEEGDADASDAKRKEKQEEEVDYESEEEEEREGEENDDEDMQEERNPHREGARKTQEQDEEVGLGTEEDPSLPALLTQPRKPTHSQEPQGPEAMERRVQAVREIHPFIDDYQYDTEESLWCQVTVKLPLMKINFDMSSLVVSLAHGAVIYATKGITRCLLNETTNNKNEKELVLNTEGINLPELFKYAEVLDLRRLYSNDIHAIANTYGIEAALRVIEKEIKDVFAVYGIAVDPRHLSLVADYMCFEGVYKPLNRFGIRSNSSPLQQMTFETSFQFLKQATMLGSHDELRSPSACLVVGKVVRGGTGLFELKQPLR
Description: Induction of RNA polymerase-1 RPA194 subunit degradation in human U2OS cells after 3 hrs by epifluorescence microscopic analysis

As to `CN1CCN(CCNC(=O)c2cccn3c(=O)c4cc5ccccc5cc4nc23)CC1`, the t1/2 in series [1] is 43 min.
As to `COCCN(C)CCNC(=O)c1cccn2c(=O)c3cc4ccccc4cc3nc12`, in series [1], the t1/2 came to 14 min.
In series [1], `CC(CNC(=O)c1cccn2c(=O)c3cc4ccccc4cc3nc12)N(C)C` (stereo not given) displayed a t1/2 of 43 min. Further, the outcome in series [2] was Active.
On the same counts, the results for `O=C(NCCN1CCCC1)c1cccn2c(=O)c3cc4ccccc4cc3nc12` are 33 min and “Active”.
As to `CN(C)CCN(C)C(=O)c1cccn2c(=O)c3cc4ccccc4cc3nc12`, in series [3], the inhibition result is “inactive”. Besides, the inhibition entry in series [4] was “Active”. Also, the IC50 in series [5] is above 100 µM. Besides, in series [2], the outcome was inactive.
With `CCN(CC)CCNC(=O)c1cccn2c(=O)c3ccccc3nc12`, the IC50 came to 1.35 µM in series [6] and 3.28 µM in series [5].
On the same counts, the results for `CN(C)CCOC(=O)c1cccn2c(=O)c3cc4ccccc4cc3nc12` are 50.9 µM and 12.3 µM.
In series [1], `O=C(NCCN1CCCCC1)c1cccn2c(=O)c3cc4ccccc4cc3nc12` returned a t1/2 of 25 min. Also, in series [3], the inhibition entry is “inactive”. For the same molecule, the inhibition entry in series [4] was “Active”. In addition, the result in series [2] was Active.
Turning to `CN(C)CCNC(=O)c1cccn2c(=O)c3cc4ccccc4cc3nc12`, the t1/2 in series [1] was 57 min. In series [3], the inhibition entry is “inactive”. Moreover, the inhibition entry in series [4] was “Active”. Further, the IC50 in series [5] came to 0.07 µM. Also, the result in series [2] was Active.
The molecule `CCN(CC)CCNC(=O)c1cccn2c(=O)c3cc4ccccc4cc3nc12` registered a t1/2 in series [1] of 21 min.
Regarding `CN(C)CCCCNC(=O)c1cccn2c(=O)c3cc4ccccc4cc3nc12`, the inhibition result in series [3] was “inactive”. Further, the inhibition entry in series [4] was “Active”. Also, in series [2], the outcome was inactive.
`CC(CN(C)C)NC(=O)c1cccn2c(=O)c3cc4ccccc4cc3nc12` (stereo not given) displayed a t1/2 in series [1] of 54 min. In addition, the inhibition result in series [3] was “inactive”. Besides, the inhibition result in series [4] was “Active”.
Consider `CN(C)CCNC(=O)c1cccn2c(=O)c3ccccc3nc12`, for which the half-maximal inhibitory concentration (IC50) in series [6] was 2.17 µM; in series [5] it was 3.17 µM. For the same molecule, the inhibition entry in series [3] was “inactive”. The inhibition result in series [4] is “Active”. In addition, in series [2], the outcome was inactive.
Consider `O=C(NCCN1CCOCC1)c1cccn2c(=O)c3cc4ccccc4cc3nc12`, for which the inhibition entry in series [3] was “inactive”. For the same molecule, the inhibition result in series [4] was “Active”. Moreover, the result in series [2] was inactive.
Take `CCN(CC)C1CCN(C(=O)c2cccn3c(=O)c4cc5ccccc5cc4nc23)C1` (stereo not given): the figures for the IC50 in series [6] and in series [5] were 31.8 µM and 10.6 µM, respectively.

One may read the IC50 as the concentration needed to halve the response being measured.

For the origin of these results see ChEMBL document CHEMBL3286342, “Design, synthesis, and structure-activity relationships of pyridoquinazolinecarboxamides as RNA polymerase I inhibitors” (J Med Chem, 2014).
